Drawing on PubChem BioAssay AID330 (DTP/NCI, 2004), this text covers T/C for 20 compounds.

Structures are written as SMILES. “And” between values parts separate entries of the source, which are not always exact repeats. Equal entries are not always repeated. Toxic doses and inconclusive results are not listed.

The assay deals with P388 leukemia ip, CD2F1 mice, survival T/C. Description: NCI In Vivo Anticancer Drug Screen. Data for tumor model P388 Leukemia (intraperitoneal) in CD2F1 (CDF1) mice. The note with it: endpoint: median survival time, higher = longer survival. Put shortly: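 Mice carrying the transplanted tumor received test compound or vehicle. Survival was recorded in each group, and the value is the treated-group measurement divided by that of the vehicle-treated control group.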

Setting [1] is: dose: 50.0 mg/kg/injection, schedule: Q01DX005 (ip), vehicle: saline with Tween-80.
[2] abbreviates: dose: 50.0 mg/kg/injection, schedule: Q01DX009 (ip), vehicle: saline with Tween-80.
Where [3] appears, read: dose: 100.0 mg/kg/injection, schedule: Q01DX009 (ip), vehicle: saline with Tween-80.
Where [4] appears, read: dose: 200.0 mg/kg/injection, schedule: Q01DX009 (ip), vehicle: saline with Tween-80.
Where [5] appears, read: dose: 60.0 mg/kg/injection, schedule: Q01DX005 (ip), vehicle: saline with Tween-80.
The mark [6] stands for this setting: dose: 120.0 mg/kg/injection, schedule: Q01DX005 (ip), vehicle: saline with Tween-80.
[7] abbreviates: dose: 240.0 mg/kg/injection, schedule: Q01DX005 (ip), vehicle: saline with Tween-80.
The mark [8] stands for this setting: dose: 200.0 mg/kg/injection, schedule: Q01DX001 (ip), vehicle: saline with Tween-80.
The mark [9] stands for this setting: dose: 400.0 mg/kg/injection, schedule: Q01DX001 (ip), vehicle: saline with Tween-80.
[10] abbreviates: dose: 200.0 mg/kg/injection, schedule: Q04DX003 (ip), vehicle: saline with Tween-80.

For the compound `CCCCCN(CCCCC)CCC(O)c1cccc2ccccc12` (stereo unspecified), the T/C (dose: 12.5 mg/kg/injection, schedule: Q01DX005 (ip), vehicle: saline with Tween-80) is 100 % of control; the T/C (dose: 25.0 mg/kg/injection, schedule: Q01DX005 (ip), vehicle: saline with Tween-80) is 105 % of control; the T/C under setting [1] is 103 % of control and 113 % of control.

Take `O=C(O)CC(Nc1ccc([N+](=O)[O-])cc1[N+](=O)[O-])C(=O)O` (stereo unspecified): the T/C was 100 % of control (dose: 50.0 mg/kg/injection, schedule: Q01DX005 (ip), vehicle: saline); 106 % of control (dose: 100.0 mg/kg/injection, schedule: Q01DX005 (ip), vehicle: saline); 103 % of control (dose: 200.0 mg/kg/injection, schedule: Q01DX005 (ip), vehicle: saline).

As for `N#Cc1cnn(-c2cccc(Cl)c2)c1-n1cccc1`, the T/C by setting is: under setting [2], 100 % of control; under setting [3], 100 % of control; under setting [4], 93 % of control.

`CC[C@]1(O)CN2CCc3c([nH]c4ccccc34)[C@@](C(=O)OC)(c3cc4c(cc3OC)N(C)[C@H]3[C@@](O)(C(=O)OC)[C@H](OC(C)=O)[C@]5(CC)C=CCN6CC[C@]43[C@@H]65)C[C@H](C2=O)[C@H]1O`: the T/C reads like this: (dose: 4.0 mg/kg/injection, schedule: Q01DX001 (ip), vehicle: water) 115 % of control; (dose: 8.0 mg/kg/injection, schedule: Q01DX001 (ip), vehicle: water) 117 % of control; (dose: 16.0 mg/kg/injection, schedule: Q01DX001 (ip), vehicle: water) 115 % of control and 124 % of control; (dose: 128.0 mg/kg/injection, schedule: Q01DX001 (ip), vehicle: water) 150 % of control.

As for `CCN(CC)C(=O)C(F)Cl` (stereo unspecified), the T/C under setting [5] is 88 % of control, the T/C under setting [6] was 88 % of control and the T/C under setting [7] was 95 % of control.

`CCCCCCCCCCCCCCCC[N+]1([O-])CCCCCC1`: the T/C (dose: 50.0 mg/kg/injection, schedule: Q01DX009 (ip), vehicle: saline) was 93 % of control.

For the compound `C=C1C(=O)O[C@H]2[C@H]1C[C@@H](O)[C@@]1(C)[C@@H](OC(=O)/C(C)=C/C)C[C@@H]3O[C@]3(C)[C@H]21`, the T/C was 105 % of control (dose: 9.0 mg/kg/injection, schedule: Q01DX005 (ip), vehicle: Klucel + Tween-80); 106 % of control (dose: 18.0 mg/kg/injection, schedule: Q01DX005 (ip), vehicle: Klucel + Tween-80); 105 % of control (dose: 36.0 mg/kg/injection, schedule: Q01DX005 (ip), vehicle: Klucel + Tween-80); 110 % of control (dose: 72.0 mg/kg/injection, schedule: Q01DX005 (ip), vehicle: Klucel + Tween-80).

Turning to `O=C1/C(=C/c2ccc([N+](=O)[O-])cc2)Cc2c1cccc2[N+](=O)[O-]`, the T/C runs as follows: (dose: 25.0 mg/kg/injection, schedule: Q01DX001 (ip), vehicle: saline with Tween-80) 98 % of control; (dose: 50.0 mg/kg/injection, schedule: Q01DX001 (ip), vehicle: saline with Tween-80) 98 % of control; (dose: 100.0 mg/kg/injection, schedule: Q01DX001 (ip), vehicle: saline with Tween-80) 99 % of control and 95 % of control; under setting [8], 93 % of control; under setting [9], 89 % of control.

Turning to `CO`, the T/C was 105 % of control (dose: 0.5 % in 0.5 ml injection vol, schedule: Q01DX009 (ip), vehicle: water); 102 % of control (dose: 1.0 % in 0.5 ml injection vol, schedule: Q01DX009 (ip), vehicle: water); 104 % of control (dose: 2.0 % in 0.5 ml injection vol, schedule: Q01DX009 (ip), vehicle: water); 104 % of control (dose: 4.0 % in 0.5 ml injection vol, schedule: Q01DX009 (ip), vehicle: water); 100 % of control and 107 % of control (dose: 8.0 % in 0.5 ml injection vol, schedule: Q01DX009 (ip), vehicle: water); 94 % of control (dose: 16.0 % in 0.5 ml injection vol, schedule: Q01DX009 (ip), vehicle: water).

In the case of `C=C(C)C1CC2(C)C(C)C(OC(=O)/C(C)=C\C)CCC2C(O)C1=O` (stereo unspecified), the T/C is 96 % of control (dose: 15.0 mg/kg/injection, schedule: Q04DX002 (ip), vehicle: distilled water + alcohol); 104 % of control (dose: 30.0 mg/kg/injection, schedule: Q04DX002 (ip), vehicle: distilled water + alcohol); 107 % of control (dose: 57.5 mg/kg/injection, schedule: Q04DX002 (ip), vehicle: distilled water + alcohol).

For `CCCCCCCCCCCCCCCCCCOCC(CO)OC` (stereo unspecified), the T/C was 101 % of control and 115 % of control under setting [1]; 115 % of control and 123 % of control (dose: 100.0 mg/kg/injection, schedule: Q01DX005 (ip), vehicle: saline with Tween-80); 123 % of control (dose: 200.0 mg/kg/injection, schedule: Q01DX005 (ip), vehicle: saline with Tween-80); 97 % of control (dose: 400.0 mg/kg/injection, schedule: Q01DX005 (ip), vehicle: saline with Tween-80).

Consider `OC(CCl)C(O)C(O)C(O)CCl` (stereo unspecified), for which the T/C (dose: 100.0 mg/kg/injection, schedule: Q04DX003 (ip), vehicle: saline with Tween-80) was 109 % of control; the T/C under setting [10] is 100 % of control; the T/C (dose: 400.0 mg/kg/injection, schedule: Q04DX003 (ip), vehicle: saline with Tween-80) was 113 % of control.

Regarding `NC1=NN(Cc2nnc(-c3ccccc3)s2)C(=O)C1`, the T/C is, setting by setting: under setting [5], 93 % of control; under setting [6], 101 % of control; under setting [7], 111 % of control.

With `O=C1C=C(C2=C(O)c3ccccc3C2=O)c2ccccc21` (tested in a mixture with another compound), the T/C is, setting by setting: (dose: 50.0 mg/kg/injection, schedule: Q01DX009 (ip), vehicle: Klucel (hydroxypropylcellulose) (HPC)) 105 % of control; (dose: 100.0 mg/kg/injection, schedule: Q01DX009 (ip), vehicle: Klucel (hydroxypropylcellulose) (HPC)) 105 % of control.

Consider `COC(=O)C1=C/C=C\CN(C=O)/C=C\1C(=O)OC`, for which the T/C is, setting by setting: (dose: 100.0 mg/kg/injection, schedule: Q01DX001 (ip), vehicle: alcohol) 101 % of control; (dose: 200.0 mg/kg/injection, schedule: Q01DX001 (ip), vehicle: alcohol) 92 % of control; (dose: 400.0 mg/kg/injection, schedule: Q01DX001 (ip), vehicle: alcohol) 101 % of control.

As to `COC1=C(OC)C(=O)C2=C(OCCCO2)C1=O`, the T/C runs as follows: (dose: 60.0 mg/kg/injection, schedule: Q01DX001 (ip), vehicle: saline with Tween-80) 105 % of control; under setting [8], 105 % of control; under setting [9], 101 % of control.

On to `CC1(C)COC(c2ccccc2-c2ccccc2C2OCC(C)(C)CO2)OC1`, for which the T/C is 100 % of control (dose: 100.0 mg/kg/injection, schedule: Q04DX003 (ip), vehicle: saline); 99 % of control (dose: 200.0 mg/kg/injection, schedule: Q04DX003 (ip), vehicle: saline); 104 % of control (dose: 400.0 mg/kg/injection, schedule: Q04DX003 (ip), vehicle: saline).

Turning to `ClCCN(CCCl)c1ccc2c3c(cccc13)-c1ccccc1-2`, the T/C (dose: 25.0 mg/kg/injection, schedule: Q04DX003 (ip), vehicle: saline with Tween-80) is 104 % of control; the T/C under setting [2] is 154 % of control; the T/C under setting [3] was 186 % of control; the T/C (dose: 132.0 mg/kg/injection, schedule: Q04DX003 (ip), vehicle: saline with Tween-80) was 159 % of control; the T/C under setting [4] is 86 % of control; the T/C under setting [10] was 177 % of control and 212 % of control. Under “dose: 300.0 mg/kg/injection, schedule: Q04DX003 (ip), vehicle: saline with Tween-80”, the T/C was 177 % of control.

For the compound `CC(=O)OC(=O)c1c(OC(C)=O)cc(C)c2c1CC(C1(C)CO1)CC2` (stereo unspecified), the T/C (dose: 1.88 mg/kg/injection, schedule: Q01DX005 (ip), vehicle: Klucel (hydroxypropylcellulose) (HPC)) is 100 % of control; the T/C (dose: 3.75 mg/kg/injection, schedule: Q01DX005 (ip), vehicle: Klucel (hydroxypropylcellulose) (HPC)) was 99 % of control; the T/C (dose: 7.5 mg/kg/injection, schedule: Q01DX005 (ip), vehicle: Klucel (hydroxypropylcellulose) (HPC)) was 100 % of control; the T/C (dose: 15.0 mg/kg/injection, schedule: Q01DX005 (ip), vehicle: Klucel (hydroxypropylcellulose) (HPC)) is 100 % of control; the T/C (dose: 30.0 mg/kg/injection, schedule: Q01DX005 (ip), vehicle: Klucel (hydroxypropylcellulose) (HPC)) was 101 % of control.

On to `O=C(O)/C=C\S(=O)(=O)O`, for which the T/C is, setting by setting: (dose: 25.0 mg/kg/injection, schedule: Q04DX002 (ip), vehicle: saline) 116 % of control; (dose: 50.0 mg/kg/injection, schedule: Q04DX002 (ip), vehicle: saline) 106 % of control; (dose: 100.0 mg/kg/injection, schedule: Q04DX002 (ip), vehicle: saline) 93 % of control.
